Assay results taken from patent US20200190073A1, “SUBSTITUTED SUCCINIMIDE DERIVATIVES AS PESTICIDES” (BASF SE, priority 2017, published 2020).
Where two headings read alike, the source gives them in different places.

Experiments:
Assay type in all cases: in vivo
[1] = test system: Rice Brown Plant Hopper (Nilaparvata lugens); assay: CE.2 Rice brown plant hopper, comparative test; conditions: read-out: % mortality in comparison to untreated controls
Description: (§1) The tables show % mortality in comparison to untreated controls.
CE.2 Rice Brown Plant Hopper (Nilaparvata lugens)
(§2) Rice seedlings were cleaned and washed 24 hours before spraying. The active compounds were formulated in 50:50 acetone:water (vol:vol) and 0.1% vol/vol surfactant (EL 620) was added. Potted rice seedlings were sprayed with 5 ml test solution, air dried, placed in cages and inoculated with 10 adults. Treated rice plants were kept at about 28-29° C. and relative humidity of about 50-60%. Percent mortality was recorded after 72 hours.

[2] = test system: Cowpea Aphid (Aphis Craccivora); assay: CE.1 Cowpea aphid, comparative test; conditions: read-out: % mortality in comparison to untreated controls
Description: as §1
CE.1 Cowpea Aphid (Aphis Craccivora)
Potted cowpea plants colonized with approximately 100-150 aphids of various stages were sprayed after the pest population has been recorded. Population reduction was assessed after 24, 72, and 120 hours.

[3] = test system: Silverleaf Whitefly (Bemisia argentifolii); assay: CE.4 Silverleaf whitefly, comparative test; conditions: 72 h, read-out: % mortality in comparison to untreated controls
Description: as §1
CE.4 Silverleaf Whitefly (Bemisia argentifolii)
The active compounds were formulated in 50:50 acetone:water (vol:vol) and 100 ppm Kinetica™ surfactant.
Selected cotton plants were grown to the cotyledon state (one plant per pot). The cotyledons were dipped into the test solution to provide complete coverage of the foliage and placed in a well-vented area to dry. Each pot with treated seedling was placed in a plastic cup and 10 to 12 whitefly adults (approximately 3-5 day old) were introduced. The insects were collected using an aspirator and a Tygon® tubing connected to a barrier pipette tip. The tip, containing the collected insects, was then gently inserted into the soil containing the treated plant, allowing insects to crawl out of the tip to reach the foliage for feeding. The cups were covered with a reusable screened lid. Test plants were maintained in the holding room at about 25° C. and about 20-40% relative humidity for 3 days avoiding direct exposure to the fluorescent light (24 hour photoperiod) to prevent trapping of heat inside the cup. Mortality was assessed 3 days after treatment of the plants.

[4] = test system: Orchid Thrips (Dichromothrips Corbetti); assay: CE.3 Orchid thrips, comparative test; conditions: 96 h, read-out: % mortality in comparison to untreated controls
Description: as §1
CE.3 Orchid Thrips (Dichromothrips Corbetti)
Dichromothrips corbetti adults used for bioassay were obtained from a colony maintained continuously under laboratory conditions. For testing purposes, the test compound was diluted to a concentration of 300 ppm (wt compound: vol diluent) in a 1:1 mixture of acetone:water (vol:vol), plus 0.01% vol/vol Kinetic® surfactant.
Thrips potency of each compound was evaluated by using a floral-immersion technique. Plastic petri dishes were used as test arenas. All petals of individual, intact orchid flowers were dipped into treatment solution and allowed to dry. Treated flowers were placed into individual petri dishes along with 10-15 adult thrips. The petri dishes were then covered with lids. All test arenas were held under continuous light and a temperature of about 280C for duration of the assay. After 4 days, the numbers of live thrips were counted on each flower, and along inner walls of each petri dish. The level of thrips mortality was extrapolated from pre-treatment thrips numbers.

[5] = test system: Rice Green Leafhopper (Nephotettix virescens); assay: CE.5 Rice green leafhopper, comparative test; conditions: 3 ppm, after 72 hours, read-out: % mortality in comparison to untreated controls
Description: as §1
CE.5 Rice Green Leafhopper (Nephotettix virescens)
as §2, with “(vol:vol),” for “(vol:vol)”

[6] = test system: Diamond back moth (Plutella xylostella); assay: B.1 Diamond back moth, cabbage leaf dip; conditions: foliar, 300 ppm, cabbage leaf dip, 3rd instar larvae, 72 hours after treatment, read-out: mortality in comparison with untreated controls
Description: B.1 Diamond back moth (Plutella xylostella)
(§3) The active compound was dissolved at the desired concentration in a mixture of 1:1 (vol:vol) distilled water:acetone. Surfactant (Kinetic HV) was added at a rate of 0.01% (vol/vol). The test solution was prepared at the day of use.
Leaves of cabbage were dipped in test solution and air-dried. Treated leaves were placed in petri dishes lined with moist filter paper and inoculated with ten 3rd instar larvae. Mortality was recorded 72 hours after treatment. Feeding damages were also recorded using a scale of 0-100%.

[7] = test system: Red Spider Mite (Tetranychus kanzawai); assay: B.9 Red spider mite, sprayed cowpea beans; conditions: 300 ppm, 72 hours after treatment, read-out: mortality in comparison with untreated controls
Description: B.9 Red Spider Mite (Tetranychus kanzawai)
The active compound was dissolved at the desired concentration in a mixture of 1:1 (vol:vol) distilled water:acetone. Add surfactant (Kinetic HV) was added at a rate of 0.01% (vol/vol).The test solution was prepared at the day of use.
Potted cowpea beans of 4-5 days of age were cleaned with tap water and sprayed with 1-2 ml of the test solution using air driven hand atomizer. The treated plants were allowed to air dry and afterwards inoculated with 30 or more mites by clipping a cassava leaf section from rearing population. Treated plants were placed inside a holding room at about 25-27° C. and about 50-60% relative humidity. Percent mortality was assessed 72 hours after treatment.

[8] = test system: Green Soldier Stink Bug (Nezara viridula); assay: B.11 Green soldier stink bug, sprayed soybean pods; conditions: 120 h, 300 ppm, late 3rd instar, after 5 days, read-out: mortality in comparison with untreated controls
Description: B.11 Green Soldier Stink Bug (Nezara viridula)
The active compound was dissolved at the desired concentration in a mixture of 1:1 (vol:vol) distilled water:acetone. Surfactant (Kinetic HV) was added at a rate of 0.01% (vol/vol). The test solution was prepared at the day of use. Soybean pods were placed in glass Petri dishes lined with moist filter paper and inoculated with ten late 3rd instar N. viridula. Using a hand atomizer, approximately 2 ml solution is sprayed into each Petri dish. Assay arenas were kept at about 25° C. Percent mortality was recorded after 5 days.

[9] = test system: Brown Marmorated Stink Bug (Halyomorpha halys); assay: B.13 Brown marmorated stink bug, spray; conditions: 120 h, 100 ppm, adults, after 5 days, read-out: mortality in comparison with untreated controls
Description: B.13 Brown Marmorated Stink Bug (Halyomorpha halys)
as §3
Row peanuts and soybean seeds were placed into microwavable plastic cups and inoculated with five adult stage H. halys. Using a hand atomizer, approximately 1 ml solution is sprayed into each cup, insects and food present. A water source was provided (cotton wick with water) Each treatment is replicated 4-fold. Assay arenas are kept at about 25° C. Percent mortality was recorded after 5 days.

[10] = test system: Boll Weevil (Anthonomus grandis); assay: B.5 Boll weevil, insect diet with eggs; conditions: 120 h, 2500 ppm, egg and larval mortality, 5 days, read-out: mortality in comparison with untreated controls
Description: B.5 Boll Weevil (Anthonomus grandis)
For evaluating control of boll weevil (Anthonomus grandis) the test unit consisted of 96-well-microtiter plates containing an insect diet and 5-10 A. grandis eggs.
The compounds were formulated using a solution containing 75% v/v water and 25% v/v DMSO. Different concentrations of formulated compounds were sprayed onto the insect diet at 5 μl, using a custom built micro atomizer, at two replications.
After application, microtiter plates were incubated at about 25±1° C. and about 75±5% relative humidity for 5 days. Egg and larval mortality was then visually assessed.

[11] = test system: Neotropical Brown Stink Bug (Euschistus heros); assay: B.12 Neotropical brown stink bug, dipped pole bean; conditions: 120 h, 500 ppm, adults, 5 days, read-out: mortality in comparison with untreated controls
Description: B.12 Neotropical Brown Stink Bug (Euschistus heros)
For evaluating control of Euschistus heros through contact the test unit consisted of 100 ml disposable plastic beakers with transparent lids.
The compounds were formulated using a solution containing 50% water and 50% acetone. 50 ml of different concentrations of formulated compounds or mixtures were prepared in a glass petri dish and used for dipping three 6 cm sections of fresh pole bean. Each treatment was replicated eight times.
After application, the pole bean sections were air-dried and 5 adult E. heros placed in each beaker. The E. heros were then allowed to suck on the treated pole bean sections and incubated at 23±1° C., 50±5% RH for 5 days. E. heros mortality was then visually assessed.

[12] = test system: Rice Green Leafhopper (Nephotettix virescens); assay: B.8 Rice green leafhopper, sprayed rice seedlings; conditions: 300 ppm, adults on sprayed rice seedlings, after 72 hours, read-out: mortality in comparison with untreated controls
Description: B.8 Rice Green Leafhopper (Nephotettix virescens)
as §2, with “in 1:1” for “in 50:50”, “acetone:water (vol:vol),” for “acetone:water (vol:vol)”, “and 0.01%” for “and 0.1%”, “surfactant (Kinetic HV)” for “surfactant (EL 620)”, “with 5-6” for “with 5”, “dried, covered with Mylar” for “dried, placed in”

[13] = test system: Green Peach Aphid (Myzus persicae); assay: B.2 Green peach aphid, artificial diet, systemic; conditions: 72 h, 2500 ppm, adult aphids on treated diet, 3 days, read-out: mortality in comparison with untreated controls
Text: B.2 Green Peach Aphid (Myzus persicae)
For evaluating control of green peach aphid (Myzus persicae) through systemic means the test unit consisted of 96-well-microtiter plates containing liquid artificial diet under an artificial mem brane.
The compounds were formulated using a solution containing 75% v/v water and 25% v/v DMSO. Different concentrations of formulated compounds were pipetted into the aphid diet, using a custom built pipetter, at two replications.
After application, 5-8 adult aphids were placed on the artificial membrane inside the microtiter plate wells. The aphids were then allowed to suck on the treated aphid diet and incubated at about 23±1° C. and about 50±5% relative humidity for 3 days. Aphid mortality and fecundity was then visually assessed.

[14] = test system: Orchid Thrips (Dichromothrips Corbetti); assay: B.7 Orchid thrips, floral immersion; conditions: 300 ppm; adult thrips; 72 hours after treatment; read-out: mortality in comparison with untreated controls
Description: B.7 Orchid Thrips (Dichromothrips Corbetti)
Dichromothrips corbetti adults used for bioassay were obtained from a colony maintained continuously under laboratory conditions. For testing purposes, the test compound is diluted in a 1:1 mixture of acetone:water (vol:vol), plus Kinetic HV at a rate of 0.01% v/v.
Thrips potency of each compound was evaluated by using a floral-immersion technique. All petals of individual, intact orchid flowers were dipped into treatment solution and allowed to dry in Petri dishes. Treated petals were placed into individual re-sealable plastic along with about 20 adult thrips. All test arenas were held under continuous light and a temperature of about 28° C. for duration of the assay. After 3 days, the numbers of live thrips were counted on each petal. The percent mortality was recorded 72 hours after treatment.

[15] = test system: Tobacco Budworm (Heliothis virescens); assay: B.4 Tobacco budworm, insect diet with eggs; conditions: 120 h, 2500 ppm, egg and larval mortality, 5 days, read-out: mortality in comparison with untreated controls
Description: B.4 Tobacco Budworm (Heliothis virescens)
For evaluating control of tobacco budworm (Heliothis virescens) the test unit consisted of 96-well-microtiter plates containing an insect diet and 15-25 H. virescens eggs.
The compounds were formulated using a solution containing 75% v/v water and 25% v/v DMSO. Different concentrations of formulated compounds were sprayed onto the insect diet at 10 μl, using a custom built micro atomizer, at two replications.
After application, microtiter plates were incubated at about 28±1° C. and about 80±5% relative humidity for 5 days. Egg and larval mortality was then visually assessed.

[16] = test system: Diamond back moth (Plutella xylostella); assay: CE.6 Diamond back moth, contact activity, comparative test; conditions: 0.1 ppm, contact activity, third-instar larvae sprayed, read-out: % mortality in comparison to untreated controls
Description: as §1
CE.6 Diamond Back Moth (Plutella xylostella)
Ten third-instar larvae are sprayed with 1 ml test solution and introduce to untreated leaves held petri dished lined with moist filter paper. Mortality is recorded 24, 72, and 120 hours after treatment.

[17] = test system: Vetch Aphid (Megoura viciae); assay: B.3 Vetch aphid, broad bean leaf disks; conditions: foliar, 120 h, 2500 ppm, sprayed leaf disks, 5 days, read-out: mortality in comparison with untreated controls
Description: B.3 Vetch Aphid (Megoura viciae)
For evaluating control of vetch aphid (Megoura viciae) through contact or systemic means the test unit consisted of 24-well-microtiter plates containing broad bean leaf disks.
The compounds were formulated using a solution containing 75% v/v water and 25% v/v DMSO. Different concentrations of formulated compounds were sprayed onto the leaf disks at 2.5 μl, using a custom built micro atomizer, at two replications.
After application, the leaf disks were air-dried and 5-8 adult aphids placed on the leaf disks inside the microtiter plate wells. The aphids were then allowed to suck on the treated leaf disks and incubated at about 23±1° C. and about 50±5% relative humidity for 5 days. Aphid mortality and fecundity was then visually assessed.

SMILES: CCN1CCC(NC(=O)c2ccc(C3=CCC(c4ccc(F)c(Cl)c4)(C(F)(F)F)C3)cc2Cl)C1=O (stereo not drawn) [No. I-9 of WO 2017/016883]
- mortality at 10 ppm ([1]; 10 ppm, after 72 hours): 25%
- mortality at 10 ppm ([2]; 10 ppm, sprayed cowpea plants): 25%
- mortality at 10 ppm ([3]; 10 ppm, 3 days after treatment): 25%
- mortality at 10 ppm ([4]; 10 ppm, after 4 days): 0%
- mortality at 3 ppm [5]: 0%

SMILES: Cc1cc(C2=NOC(c3cc(Cl)cc(Cl)c3)(C(F)(F)F)C2)ccc1C(=O)NC1CCN(CC(F)(F)F)C1=O (stereo not drawn) [No. 5-405 of US 20070066617, reference compound]
- mortality at 10 ppm ([1]; 72 h): 0%
- mortality at 10 ppm [2]: 25%
- mortality at 10 ppm [3]: 25%
- mortality at 10 ppm [4]: 0%

SMILES: CN1C(=O)CC(NC(=O)c2ccc(C3=NOC(c4ccc(F)c(Cl)c4)(C(F)(F)F)C3)c3c2CCC3)C1=O (stereo not drawn) [Compound I-1-11]
- mortality at 300 ppm [6]: > 75%
- mortality at 300 ppm [7]: > 75%
- mortality at 300 ppm [8]: > 75%
- mortality at 100 ppm [9]: > 75%
- mortality at 2500 ppm [10]: > 75%
- mortality at 500 ppm [11]: > 75%
- mortality at 300 ppm [12]: > 75%
- mortality at 2500 ppm [13]: > 75%
- mortality at 300 ppm [14]: > 75%
- mortality at 2500 ppm [15]: > 75%
- mortality at 0.1 ppm [16]: 75%
- mortality at 2500 ppm [17]: > 75%
